# Measurements as given in patent US12570662B2, “Substituted pyrrolo[1,2-b]pyridazines as bifunctional degraders of interleukin-1 receptor-associated kinases” (Nurix Therapeutics, Inc., priority 2021, dated 2026).
# Like-named read-outs stand apart in the source and are kept apart here.
# Target: T1, IRAK4 (Homo sapiens, UniProt Q9NWZ3)
# T1 construct: C-terminal HiBiT-tagged Jurkat cells (polyclonal cell line or clone 8D5); endogenous in cells; host or cells: Jurkat cells (polyclonal cell line or clone 8D5), HiBiT-tagged
# T1 sequence (Q9NWZ3 1-460): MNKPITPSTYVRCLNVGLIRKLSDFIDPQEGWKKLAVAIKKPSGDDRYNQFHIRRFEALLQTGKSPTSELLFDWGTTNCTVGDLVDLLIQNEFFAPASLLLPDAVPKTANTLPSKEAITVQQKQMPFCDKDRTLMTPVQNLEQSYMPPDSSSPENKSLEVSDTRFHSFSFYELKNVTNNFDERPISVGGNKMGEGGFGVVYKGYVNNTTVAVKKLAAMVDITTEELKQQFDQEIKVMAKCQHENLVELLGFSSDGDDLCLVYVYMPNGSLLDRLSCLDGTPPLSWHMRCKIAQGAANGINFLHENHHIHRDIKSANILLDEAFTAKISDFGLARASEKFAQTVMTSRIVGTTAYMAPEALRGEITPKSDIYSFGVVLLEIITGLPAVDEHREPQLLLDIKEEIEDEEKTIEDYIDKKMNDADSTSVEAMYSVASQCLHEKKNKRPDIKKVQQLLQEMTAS
# Assay: IRAK4 Degradation HiBit Assay
# Assay type: cell-based
# Conditions: C-terminal HiBiT-tagged Jurkat cells, 4 hrs incubation; for DC50: % IRAK4 remaining, four-parameter fit (IC50 used as DC50); for Dmax: from fit of % IRAK4 remaining
# Procedure, shortened: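 Jurkat cells carrying C-terminal HiBiT-tagged IRAK4 (polyclonal or clone 8D5) exposed to compound, 10 μM–0.1 nM final over 11 points, for 4 h at 32 °C. Remaining IRAK4 measured by lytic HiBiT/LgBiT luminescence relative to DMSO. DC50 and Dmax taken from four-parameter variable-slope fits.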
Compound,DC50,Dmax (read-out: Dmax),Dmax
"N#Cc1cnn2c(-c3cc(NC4CC4)c(-c4nnc(N5CC6CCC(C5)N6CC5CCN(c6ccc([C@H]7CCC(=O)NC7=O)cc6)CC5)s4)cn3)ccc2c1 (racemic) [Example 99, rac-7-[4-(cyclopropylamino)-5-(5-{8-[(1-{4-[(3R)-2,6-dioxopiperidin-3-yl]phenyl}piperidin-4-yl)methyl]-3,8-diazabicyclo[3.2.1]octan-3-yl}-1,3,4-thiadiazol-2-yl)pyridin-2-yl]pyrrolo[1,2-b]pyridazine-3-carbonitrile]",56 nM,73%,
"N#Cc1cnn2c(-c3cc(NC4CCOCC4)c(-c4nnc(N5CCN(C[C@H]6[C@H]7CN(c8ccc(C9CCC(=O)NC9=O)cn8)C[C@@H]67)CC5)s4)cn3)ccc2c1 (mixture of isomers) [Example 100, 7-{5-[5-(4-{[(1RS&,5SR&,6RS&)-3-{5-[(3RS)-2,6-dioxopiperidin-3-yl]pyridin-2-yl}-3-azabicyclo[3.1.0]hexan-6-yl]methyl}piperazin-1-yl)-1,3,4-thiadiazol-2-yl]-4-[(oxan-4-yl)amino]pyridin-2-yl}pyrrolo[1,2-b]pyridazine-3-carbonitrile]",20 nM,,95%
"N#Cc1cnn2c(-c3cc(NC4CCOCC4)c(-c4nnc(N5CC6CCC(C5)N6CC5[C@H]6CN(c7ccc([C@H]8CCC(=O)NC8=O)cn7)C[C@@H]56)s4)cn3)ccc2c1 (mixture of isomers) [Example 101, 7-{5-[5-(8-{[(1RS&,5SR&,6RS&)-3-{5-[(3RS)-2,6-dioxopiperidin-3-yl]pyridin-2-yl}-3-azabicyclo[3.1.0]hexan-6-yl]methyl}-3,8-diazabicyclo[3.2.1]octan-3-yl)-1,3,4-thiadiazol-2-yl]-4-[(oxan-4-yl)amino]pyridin-2-yl}pyrrolo[1,2-b]pyridazine-3-carbonitrile]",7 nM,,55%
"CCNc1cc(-c2ccc3cc(C#N)cnn23)ncc1-c1nnc(N2CC3CCC(C2)N3CC2CCN(c3ccc([C@H]4CCC(=O)NC4=O)cc3)CC2)s1 (racemic) [Example 102, rac-7-[5-(5-{8-[(1-{4-[(3R)-2,6-dioxopiperidin-3-yl]phenyl}piperidin-4-yl)methyl]-3,8-diazabicyclo[3.2.1]octan-3-yl}-1,3,4-thiadiazol-2-yl)-4-(ethylamino)pyridin-2-yl]pyrrolo[1,2-b]pyridazine-3-carbonitrile]",42 nM,107%,
"N#Cc1cnn2c(-c3cc(NC4(C#N)CC4)c(-c4nnc(N5CC6CCC(C5)N6CC5CCN(c6ccc([C@H]7CCC(=O)NC7=O)cn6)CC5)s4)cn3)ccc2c1 (racemic) [Example 103, rac-7-{4-[(1-cyanocyclopropyl)amino]-5-(5-{8-[(1-{5-[(3R)-2,6-dioxopiperidin-3-yl]pyridin-2-yl}piperidin-4-yl)methyl]-3,8-diazabicyclo[3.2.1]octan-3-yl}-1,3,4-thiadiazol-2-yl)pyridin-2-yl}pyrrolo[1,2-b]pyridazine-3-carbonitrile]",12 nM,106%,
"N#CCNc1cc(-c2ccc3cc(C#N)cnn23)ncc1-c1nnc(N2CC3CCC(C2)N3CC2CCN(c3ccc([C@H]4CCC(=O)NC4=O)cn3)CC2)s1 (racemic) [Example 104, rac-7-{4-[(cyanomethyl)amino]-5-(5-{8-[(1-{5-[(3R)-2,6-dioxopiperidin-3-yl]pyridin-2-yl}piperidin-4-yl)methyl]-3,8-diazabicyclo[3.2.1]octan-3-yl}-1,3,4-thiadiazol-2-yl)pyridin-2-yl}pyrrolo[1,2-b]pyridazine-3-carbonitrile]",4 nM,115%,
"N#CCNc1cc(-c2ccc3cc(C#N)cnn23)ncc1-c1nnc(N2CC3CCC(C2)N3CC2CCN(c3ccc([C@H]4CCC(=O)NC4=O)cc3)CC2)s1 (racemic) [Example 105, rac-7-{4-[(cyanomethyl)amino]-5-(5-{8-[(1-{4-[(3R)-2,6-dioxopiperidin-3-yl]phenyl}piperidin-4-yl)methyl]-3,8-diazabicyclo[3.2.1]octan-3-yl}-1,3,4-thiadiazol-2-yl)pyridin-2-yl}pyrrolo[1,2-b]pyridazine-3-carbonitrile]",6 nM,112%,
"N#Cc1cnn2c(-c3cc(NC4CCOCC4)c(-c4nnc(N5CCN(CC6CCN(c7ccc(C8CCC(=O)NC8=O)nc7)CC6)CC5)s4)cn3)ccc2c1 (racemic) [Example 106, rac-7-[5-(5-{4-[(1-{6-[(3R)-2,6-dioxopiperidin-3-yl]pyridin-3-yl}piperidin-4-yl)methyl]piperazin-1-yl}-1,3,4-thiadiazol-2-yl)-4-[(oxan-4-yl)amino]pyridin-2-yl]pyrrolo[1,2-b]pyridazine-3-carbonitrile]",21 nM,99%,
"N#Cc1cnn2c(-c3cc(NC4CCOCC4)c(-c4nnc(N5CCN(C[C@H]6CC[C@H](Oc7ccc([C@@H]8CCC(=O)NC8=O)cn7)CC6)CC5)s4)cn3)ccc2c1 (racemic) [Example 107, 7-{4-[(oxan-4-yl)amino]-5-[5-(4-{[(1r,4r)-4-({5-[(3RS)-2,6-dioxopiperidin-3-yl]pyridin-2-yl}oxy)cyclohexyl]methyl}piperazin-1-yl)-1,3,4-thiadiazol-2-yl]pyridin-2-yl}pyrrolo[1,2-b]pyridazine-3-carbonitrile]",65 nM,111%,
"N#Cc1cnn2c(-c3cc(NC4CCOCC4)c(-c4nnc(N5CC6CCC(C5)N6C[C@H]5CC[C@H](Oc6ccc([C@@H]7CCC(=O)NC7=O)cn6)CC5)s4)cn3)ccc2c1 (racemic) [Example 108, 7-{4-[(oxan-4-yl)amino]-5-[5-(8-{[(1r,4r)-4-({5-[(3RS)-2,6-dioxopiperidin-3-yl]pyridin-2-yl}oxy)cyclohexyl]methyl}-3,8-diazabicyclo[3.2.1]octan-3-yl)-1,3,4-thiadiazol-2-yl]pyridin-2-yl}pyrrolo[1,2-b]pyridazine-3-carbonitrile]",40 nM,87%,
"N#Cc1cnn2c(-c3cc(NC4CCC4)c(-c4nnc(N5CCN(CC6CCN(c7ccc(C8CCC(=O)NC8=O)cn7)CC6)CC5)s4)cn3)ccc2c1 (racemic) [Example 113, rac-7-[4-(cyclobutylamino)-5-(5-{4-[(1-{5-[(3R)-2,6-dioxopiperidin-3-yl]pyridin-2-yl}piperidin-4-yl)methyl]piperazin-1-yl}-1,3,4-thiadiazol-2-yl)pyridin-2-yl]pyrrolo[1,2-b]pyridazine-3-carbonitrile]",239 nM,105%,
"COC[C@@H](C)Nc1cc(-c2ccc3cc(C#N)cnn23)ncc1-c1nnc(N2CC3CCC(C2)N3CC2CCN(c3ccc(C4CCC(=O)NC4=O)cn3)CC2)s1 (mixture of isomers) [Example 114, 7-[5-(5-{8-[(1-{5-[(3RS)-2,6-dioxopiperidin-3-yl]pyridin-2-yl}piperidin-4-yl)methyl]-3,8-diazabicyclo[3.2.1]octan-3-yl}-1,3,4-thiadiazol-2-yl)-4-{[(2R)-1-methoxypropan-2-yl]amino}pyridin-2-yl]pyrrolo[1,2-b]pyridazine-3-carbonitrile]",100 nM,110%,
"N#Cc1cnn2c(-c3cc(NC4CCOCC4)c(-c4nnc(N5CCN(CC6CCN(c7ccc([C@H]8CCC(=O)NC8=O)cn7)CC6)CC5)s4)cn3)ccc2c1 (single isomer, unassigned) [Example 30]",40 nM,104%,
"N#Cc1cnn2c(-c3cc(NC4CCOCC4)c(-c4nnc(N5CCN(CC6CCN(c7ccc([C@@H]8CCC(=O)NC8=O)cn7)CC6)CC5)s4)cn3)ccc2c1 (single isomer, unassigned) [Example 31]",160 nM,53%,
"CNc1cc(-c2ccc3cc(C#N)cnn23)ncc1-c1nnc(N2CCN(CC3CCN(c4ccc([C@H]5CCC(=O)NC5=O)cn4)CC3)CC2)s1 (single isomer, unassigned) [Example 41]",1050 nM,83%,
"CNc1cc(-c2ccc3cc(C#N)cnn23)ncc1-c1nnc(N2CCN(CC3CCN(c4ccc([C@@H]5CCC(=O)NC5=O)cn4)CC3)CC2)s1 (single isomer, unassigned) [Example 42]",16 nM,115%,
"N#Cc1cnn2c(-c3cc(NC4CCOCC4)c(-c4nnc(N5CC6CCC(C5)N6CC5CCN(c6ccc([C@@H]7CCC(=O)NC7=O)cc6)CC5)s4)cn3)ccc2c1 (single isomer, unassigned) [Example 109]",52 nM,94%,
"N#Cc1cnn2c(-c3cc(NC4CCOCC4)c(-c4nnc(N5CC6CCC(C5)N6CC5CCN(c6ccc([C@H]7CCC(=O)NC7=O)cc6)CC5)s4)cn3)ccc2c1 (single isomer, unassigned) [Example 110]",50 nM,50%,
"N#Cc1cnn2c(-c3cc(NC4CCOCC4)c(-c4nnc(N5CC6CCC(C5)N6CC5CCN(c6ccc([C@@H]7CCC(=O)NC7=O)cn6)CC5)s4)cn3)ccc2c1 (single isomer, unassigned) [Example 111]",32 nM,110%,
"N#Cc1cnn2c(-c3cc(NC4CCOCC4)c(-c4nnc(N5CC6CCC(C5)N6CC5CCN(c6ccc([C@H]7CCC(=O)NC7=O)cn6)CC5)s4)cn3)ccc2c1 (single isomer, unassigned) [Example 112]",33 nM,92%,
